System: Secretion of ApoB
Assay: Quantification of the secretion of ApoB in HepG2 cells
Type: cell-based
Settings: Homo sapiens, HepG2, 24 h, 24 hours of incubation with test compound, immunoprecipitation of apoB from medium, read-out: pIC50 value (=-log IC50 value), secretion of ApoB (converted)
Method: HepG2 cells were cultured in 24-well plates in MEM Rega 3 containing 10% fetal calf serum. At 70% confluency, the medium was changed and the test compound or carrier (DMSO, 0.4% final concentration) was added. After 24 hours of incubation, the medium was transferred to Eppendorf tubes and cleared by centrifugation. A sheep antibody directed against either apoB was added to the supernatant and the mixture was kept at 8° C. for 24 hours. Then, rabbit anti-sheep antibody was added and the immune complex was allowed to precipitate for 24 hours at 8° C. The immunoprecipitate was pelleted by centrifugation for 25 minutes at 1320 g and washed twice with a buffer containing 40 mM Mops, 40 mM NaH2PO4, 100 mM NaF, 0.2 mM DTT, 5 mM EDTA, 5 mM EGTA, 1% Triton-X-100, 0.5% sodium deoxycholate (DOC), 0.1% SDS, 0.2 μM leupeptin and 0.2 μM PMSF. Radioactivity in the pellet was quantified by liquid scintillation-counting. The IC50 values are usually converted to pIC50 values (=−log IC50 value) for ease of use.

SMILES	IC50 [nM]
CCNC(=O)C(c1ccccc1)N1CCN(c2ccc(-n3c(-c4ccccc4)nn(C(C)C)c3=O)cc2)CC1 (stereo not drawn) [Compound 31]	316 to 3160
CCCNC(=O)C(c1ccccc1)N1CCN(c2ccc(-n3c(-c4ccccc4)nn(C(C)C)c3=O)cc2)CC1 (stereo not drawn) [Compound 32]	316 to 3160
CC(C)n1nc(-c2ccccc2)n(-c2ccc(N3CCN(C(C(=O)NCc4ccccc4)c4ccccc4)CC3)cc2)c1=O (stereo not drawn) [Compound 33]	316 to 3160
COC(=O)C(c1ccccc1)N1CCN(c2ccc(-n3nc(-c4ccccc4)n(C(C)C)c3=O)cc2)CC1 (stereo not drawn) [Compound 34]	316 to 3160
COC(=O)C(c1ccccc1)N1CCN(c2ccc(-n3c(-c4ccccc4)nn(C(C)C)c3=O)cc2)CC1 (stereo not drawn) [Compound 35]	316 to 3160
COC(=O)C(c1ccccc1)N1CCN(c2ccc(-n3ncn(C(C)C)c3=O)cc2)CC1 (stereo not drawn) [Compound 36]	316 to 3160
CCCOC(=O)C(c1ccccc1)N1CCN(c2ccc(-n3cnn(C(C)C)c3=O)cc2)CC1 (stereo not drawn) [Compound 38]	316 to 3160
CCNC(=O)C(c1ccccc1)N1CCN(c2ccc(-n3nc(C)n(C(C)C)c3=O)cc2)CC1 (stereo not drawn) [Compound 39]	316 to 3160
CCCOC(=O)C(CN1CCN(c2ccc(-n3cnn(C(C)C)c3=O)cc2)CC1)c1ccccc1 (stereo not drawn) [Compound 41]	316 to 3160
CCCCCn1ncn(-c2ccc(N3CCC(C(C(=O)Nc4ccccc4)c4ccccc4)CC3)cc2)c1=O (stereo not drawn) [Compound 51]	31.6 to 316
C=CCn1ncn(-c2ccc(N3CCC(C(C(=O)Nc4ccccc4)c4ccccc4)CC3)cc2)c1=O (stereo not drawn) [Compound 52]	316 to 3160
CCn1ncn(-c2ccc(N3CCC(C(C(=O)Nc4ccccc4)c4ccccc4)CC3)cc2)c1=O (stereo not drawn) [Compound 53]	316 to 3160
Cc1ccc(C)c(NC(=O)C(c2ccccc2)N2CCN(c3ccc(-n4cnn(C(C)C)c4=O)cc3)CC2)c1 (stereo not drawn) [Compound 54]	31.6 to 316
CC(C)n1ncn(-c2ccc(N3CCN(C(C(=O)Nc4ccc(Cl)cc4)c4ccccc4)CC3)cc2)c1=O (stereo not drawn) [Compound 55]	31.6 to 316
Cc1cccc(NC(=O)C(c2ccccc2)N2CCN(c3ccc(-n4cnn(C(C)C)c4=O)cc3)CC2)c1 (stereo not drawn) [Compound 57]	31.6 to 316
CC(C)n1ncn(-c2ccc(N3CCN(C(C(=O)Nc4cccc(C(F)(F)F)c4)c4ccccc4)CC3)cc2)c1=O (stereo not drawn) [Compound 58]	31.6 to 316
Cc1ccc(NC(=O)C(c2ccccc2)N2CCN(c3ccc(-n4cnn(C(C)C)c4=O)cc3)CC2)c(C)c1 (stereo not drawn) [Compound 59]	31.6 to 316
Cc1cc(C)cc(NC(=O)C(c2ccccc2)N2CCN(c3ccc(-n4cnn(C(C)C)c4=O)cc3)CC2)c1 (stereo not drawn) [Compound 60]	31.6 to 316
COc1cccc(NC(=O)C(c2ccccc2)N2CCN(c3ccc(-n4cnn(C(C)C)c4=O)cc3)CC2)c1 (stereo not drawn) [Compound 61]	31.6 to 316
CC(C)n1ncn(-c2ccc(N3CCN(C(C(=O)Nc4ccc(F)cc4F)c4ccccc4)CC3)cc2)c1=O (stereo not drawn) [Compound 62]	31.6 to 316
CC(C)n1ncn(-c2ccc(N3CCN(C(C(=O)Nc4ccc5c(c4)OCCO5)c4ccccc4)CC3)cc2)c1=O (stereo not drawn) [Compound 63]	31.6 to 316

SMILES	IC50 [nM]
COc1cc(NC(=O)C(c2ccccc2)N2CCN(c3ccc(-n4cnn(C(C)C)c4=O)cc3)CC2)cc(C(F)(F)F)c1 (stereo not drawn) [Compound 64]	31.6 to 316
CCOC(=O)CNC(=O)C(c1ccccc1)N1CCN(c2ccc(-n3cnn(C(C)C)c3=O)cc2)CC1 (stereo not drawn) [Compound 66]	31.6 to 316
CC(C)n1ncn(-c2ccc(N3CCN(C(C(=O)NCCNc4cccc5ccccc45)c4ccccc4)CC3)cc2)c1=O (stereo not drawn) [Compound 67]	316 to 3160
CC(C)n1ncn(-c2ccc(N3CCN(C(C(=O)NCC(C)(c4ccccc4)c4ccccc4)c4ccccc4)CC3)cc2)c1=O (stereo not drawn) [Compound 68]	316 to 3160
CC(C)n1ncn(-c2ccc(N3CCN(C(C(=O)NC4Cc5ccccc5C4)c4ccccc4)CC3)cc2)c1=O (stereo not drawn) [Compound 69]	31.6 to 316
CC(C)NC(=O)C(CN1CCN(c2ccc(-n3cnn(C(C)C)c3=O)cc2)CC1)c1ccccc1 (stereo not drawn) [Compound 74]	31.6 to 316
COc1cc(CNC(=O)C(c2ccccc2)N2CCN(c3ccc(-n4cnn(C(C)C)c4=O)cc3)CC2)cc(OC)c1OC (stereo not drawn) [Compound 78]	316 to 3160
CC(C)n1ncn(-c2ccc(N3CCN(C(C(=O)NC4CC4)c4ccccc4)CC3)cc2)c1=O (stereo not drawn) [Compound 81]	316 to 3160
COc1ccc(CCNC(=O)C(c2ccccc2)N2CCN(c3ccc(-n4cnn(C(C)C)c4=O)cc3)CC2)cc1OC (stereo not drawn) [Compound 82]	31.6 to 316
CCCn1ncn(-c2ccc(N3CCC(C(C(=O)NC(C)C)c4ccccc4)CC3)cc2)c1=O (stereo not drawn) [Compound 87]	316 to 3160
CCCCn1ncn(-c2ccc(N3CCC(C(C(=O)NC(C)C)c4ccccc4)CC3)cc2)c1=O (stereo not drawn) [Compound 88]	31.6 to 316
CCCCCn1ncn(-c2ccc(N3CCC(C(C(=O)NC(C)C)c4ccccc4)CC3)cc2)c1=O (stereo not drawn) [Compound 89]	316 to 3160
CC(C)Cn1ncn(-c2ccc(N3CCC(C(C(=O)NC(C)C)c4ccccc4)CC3)cc2)c1=O (stereo not drawn) [Compound 90]	316 to 3160
CC(C)NC(=O)C(c1ccccc1)C1CCN(c2ccc(-n3cnn(CC4CC4)c3=O)cc2)CC1 (stereo not drawn) [Compound 91]	316 to 3160
CC(C)NC(=O)C(c1ccccc1)C1CCN(c2ccc(-n3cnn(C/C=C/c4ccccc4)c3=O)cc2)CC1 (stereo not drawn) [Compound 92]	316 to 3160
CCC(C)n1ncn(-c2ccc(N3CCN(C(C(=O)NCCO)c4ccccc4)CC3)cc2)c1=O (stereo not drawn) [Compound 94]	316 to 3160
C=CCNC(=O)C(c1ccccc1)N1CCN(c2ccc(-n3cnn(C(C)CC)c3=O)cc2)CC1 (stereo not drawn) [Compound 95]	31.6 to 316
CCCCCNC(=O)C(c1ccccc1)N1CCN(c2ccc(-n3cnn(C(C)CC)c3=O)cc2)CC1 (stereo not drawn) [Compound 96]	31.6 to 316
COc1ccc(CNC(=O)C(c2ccccc2)N2CCN(c3ccc(-n4cnn(C(C)C)c4=O)cc3)CC2)c(OC)c1 (stereo not drawn) [Compound 97]	31.6 to 316
CC(C)n1ncn(-c2ccc(N3CCN(CC(C(=O)NCC(F)(F)F)c4ccccc4)CC3)cc2)c1=O (stereo not drawn) [Compound 98]	31.6 to 316

More lines, now with the values ahead:

IC50 [nM]	SMILES
316 to 3160	CC(C)n1ncn(-c2ccc(N3CCN(C(C(=O)Nc4ccccc4)c4ccccc4)CC3)nc2)c1=O (stereo not drawn) [Compound 37]
316 to 3160	Cc1nn(-c2ccc(N3CCN(C(C(=O)NCc4ccccc4)c4ccccc4)CC3)cc2)c(=O)n1C(C)C (stereo not drawn) [Compound 40]
316 to 3160	CCCCNC(=O)C(c1ccccc1)N1CCN(c2ccc(-n3cnn(C(C)C)c3=O)cn2)CC1 (stereo not drawn) [Compound 42]
316 to 3160	CC(C)CNC(=O)C(c1ccccc1)N1CCN(c2ccc(-n3cnn(C(C)C)c3=O)cn2)CC1 (stereo not drawn) [Compound 43]
31.6 to 316	CCCCCNC(=O)C(c1ccccc1)N1CCN(c2ccc(-n3cnn(C(C)C)c3=O)cn2)CC1 (stereo not drawn) [Compound 44]
316 to 3160	CC(C)n1ncn(-c2ccc(N3CCN(C(C(=O)NCc4ccccn4)c4ccccc4)CC3)nc2)c1=O (stereo not drawn) [Compound 45]
316 to 3160	CCNC(=O)C(c1ccccc1)N1CCN(c2ccc(-n3cnn(C(C)C)c3=O)cn2)CC1 (stereo not drawn) [Compound 46]
316 to 3160	CCCNC(=O)C(c1ccccc1)N1CCN(c2ccc(-n3cnn(C(C)C)c3=O)cn2)CC1 (stereo not drawn) [Compound 47]
31.6 to 316	CC(C)n1ncn(-c2ccc(N3CCN(C(C(=O)NCc4ccccc4)c4ccccc4)CC3)nc2)c1=O (stereo not drawn) [Compound 48]
316 to 3160	C=CCNC(=O)C(c1ccccc1)N1CCN(c2ccc(-n3cnn(C(C)C)c3=O)cn2)CC1 (stereo not drawn) [Compound 49]
316 to 3160	CC(C)n1ncn(-c2ccc(N3CCN(C(C(=O)NCCC#N)c4ccccc4)CC3)nc2)c1=O (stereo not drawn) [Compound 50]
316 to 3160	CC(C)n1ncn(-c2ccc(N3CCN(C(C(=O)Nc4ccccc4O)c4ccccc4)CC3)cc2)c1=O (stereo not drawn) [Compound 56]
316 to 3160	CC(C)n1ncn(-c2ccc(N3CCN(C(C(=O)NCc4ccco4)c4ccccc4)CC3)cc2)c1=O (stereo not drawn) [Compound 65]
316 to 3160	CC(C)n1ncn(-c2ccc(N3CCN(C(C(=O)NCc4ccccn4)c4ccccc4)CC3)cc2)c1=O (stereo not drawn) [Compound 70]
316 to 3160	COc1ccc(CNC(=O)C(c2ccccc2)N2CCN(c3ccc(-n4cnn(C(C)C)c4=O)cc3)CC2)cc1 (stereo not drawn) [Compound 71]
316 to 3160	CC(C)n1ncn(-c2ccc(N3CCN(C(C(=O)NCCc4ccccn4)c4ccccc4)CC3)cc2)c1=O (stereo not drawn) [Compound 72]
316 to 3160	CC(C)n1ncn(-c2ccc(N3CCN(C(C(=O)NCc4ccc(S(C)(=O)=O)cc4)c4ccccc4)CC3)cc2)c1=O (stereo not drawn) [Compound 73]
316 to 3160	CC(C)n1ncn(-c2ccc(N3CCN(C(C(=O)NCc4cccs4)c4ccccc4)CC3)cc2)c1=O (stereo not drawn) [Compound 75]
31.6 to 316	CC(C)n1ncn(-c2ccc(N3CCN(C(C(=O)NCc4cccc(C(F)(F)F)c4)c4ccccc4)CC3)cc2)c1=O (stereo not drawn) [Compound 77]
316 to 3160	CC(C)n1ncn(-c2ccc(N3CCN(C(C(=O)NCc4c(F)cccc4F)c4ccccc4)CC3)cc2)c1=O (stereo not drawn) [Compound 79]
31.6 to 316	CC(C)n1ncn(-c2ccc(N3CCN(C(C(=O)NCCNc4ccccc4)c4ccccc4)CC3)cc2)c1=O (stereo not drawn) [Compound 80]
31.6 to 316	CC(C)n1ncn(-c2ccc(N3CCN(C(C(=O)NCc4cccc5ccccc45)c4ccccc4)CC3)cc2)c1=O (stereo not drawn) [Compound 83]
316 to 3160	CC(C)n1ncn(-c2ccc(N3CCN(C(C(=O)NCCCN(C)c4ccccc4)c4ccccc4)CC3)cc2)c1=O (stereo not drawn) [Compound 84]
31.6 to 316	CC(C)n1ncn(-c2ccc(N3CCN(C(C(=O)NCCCc4ccccc4)c4ccccc4)CC3)cc2)c1=O (stereo not drawn) [Compound 85]
316 to 3160	Cc1nn(C(C)C)c(=O)n1-c1ccc(N2CCN(C(C(=O)NCc3ccccc3)c3ccccc3)CC2)cc1 (stereo not drawn) [Compound 86]

— patent US7504400B2, “MTP inhibiting aryl piperydines or piperazines substituted with 5-membered heterocycles” (Janssen Pharmaceutica N.V., priority 2004, dated 2009)
